Patent publication US9511058B2, “Methods for using carboxamide, sulfonamide and amine compounds” (Rigel Pharmaceuticals, Inc., priority 2010, dated 2016)

Molecular target: AMPK
Test: AMPK activation, enzyme-linked immunosorbent assay
Assay type: biochemical
Details: compounds of Table 1 (Table 6)

SMILES | EC50
CC(C)(C)OC(=O)N1CC[C@@H](NC(=O)c2cc3cc(OC4CCN(c5ccc(C(F)(F)F)cc5)CC4)ccc3o2)C1 [1-120, (R)-tert-butyl 3-(5-(1-(4-(trifluoromethyl)phenyl)piperidin-4-yloxy)benzofuran-2-carboxamido)pyrrolidine-1-carboxylate] | 1000 to 5000 nM
O=C(N[C@@H]1CCNC1)c1cc2cc(OC3CCN(c4ccc(C(F)(F)F)cc4)CC3)ccc2o1 [1-121, (R)-N-(pyrrolidin-3-yl)-5-(1-(4-(trifluoromethyl)phenyl)piperidin-4-yloxy)benzofuran-2-carboxamide] | > 10000 nM
O=C(N[C@@H]1CCN(Cc2ccccn2)C1)c1cc2cc(OC3CCN(c4ccc(C(F)(F)F)cc4)CC3)ccc2o1 [1-124, (R)-N-(1-(pyridin-2-ylmethyl)pyrrolidin-3-yl)-5-(1-(4-(trifluoromethyl)phenyl)piperidin-4-yloxy)benzofuran-2-carboxamide] | 1000 to 5000 nM
O=C(N[C@@H]1CCN(C(=O)c2ccncc2)C1)c1cc2cc(OC3CCN(c4ccc(C(F)(F)F)cc4)CC3)ccc2o1 [1-125, (R)-N-(1-isonicotinoylpyrrolidin-3-yl)-5-(1-(4-(trifluoromethyl)phenyl)piperidin-4-yloxy)benzofuran-2-carboxamide] | 1000 to 5000 nM
O=C(N[C@@H]1CCN(S(=O)(=O)c2cccnc2)C1)c1cc2cc(OC3CCN(c4ccc(C(F)(F)F)cc4)CC3)ccc2o1 [1-126, (R)-N-(1-(pyridin-3-ylsulfonyl)pyrrolidin-3-yl)-5-(1-(4-(trifluoromethyl)phenyl)piperidin-4-yloxy)benzofuran-2-carboxamide] | 1000 to 5000 nM
CC(C)(C)OC(=O)N1CC[C@H](NC(=O)c2cc3cc(OC4CCN(Cc5ccc(Cl)cc5)CC4)ccc3o2)C1 [1-127, (S)-tert-butyl 3-(5-(1-(4-chlorobenzyl)piperidin-4-yloxy)benzofuran-2-carboxamido)pyrrolidine-1-carboxylate] | 1000 to 5000 nM
O=C(N[C@H]1CCNC1)c1cc2cc(OC3CCN(Cc4ccc(Cl)cc4)CC3)ccc2o1 [1-128, (S)-5-(1-(4-chlorobenzyl)piperidin-4-yloxy)-N-(pyrrolidin-3-yl)benzofuran-2-carboxamide] | > 10000 nM
O=C(N[C@H]1CCN(Cc2ccncc2)C1)c1cc2cc(OC3CCN(Cc4ccc(Cl)cc4)CC3)ccc2o1 [1-129, (S)-5-(1-(4-chlorobenzyl)piperidin-4-yloxy)-N-(1-(pyridin-4-ylmethyl)pyrrolidin-3-yl)benzofuran-2-carboxamide] | 1000 to 5000 nM
O=C(N[C@H]1CCN(Cc2cccnc2)C1)c1cc2cc(OC3CCN(Cc4ccc(Cl)cc4)CC3)ccc2o1 [1-130, (S)-5-(1-(4-chlorobenzyl)piperidin-4-yloxy)-N-(1-(pyridin-3-ylmethyl)pyrrolidin-3-yl)benzofuran-2-carboxamide] | 1000 to 5000 nM
NC(=O)c1ccc(CN2CCC(Oc3ccc4oc(C(=O)NC5CCN(Cc6ccncc6)CC5)cc4c3)CC2)cc1 [1-131, 5-(1-(4-carbamoylbenzyl)piperidin-4-yloxy)-N-(1-(pyridin-4-ylmethyl)piperidin-4-yl)benzofuran-2-carboxamide] | 1000 to 5000 nM
CC(C)(C)OC(=O)N1CCC(NC(=O)c2cc3ccc(OC4CCN(c5ccc(C(F)(F)F)cc5)CC4)cc3s2)CC1 [1-140, tert-butyl 4-(6-(1-(4-(trifluoromethyl)phenyl)piperidin-4-yloxy)benzo[b]thiophene-2-carboxamido)piperidine-1-carboxylate] | 500 to 1000 nM
O=C(NC1CCNCC1)c1cc2ccc(OC3CCN(c4ccc(C(F)(F)F)cc4)CC3)cc2s1 [1-141, N-(piperidin-4-yl)-6-(1-(4-(trifluoromethyl)phenyl)piperidin-4-yloxy)benzo[b]thiophene-2-carboxamide] | 100 to 500 nM
N#Cc1cccc(CN2CCC(NC(=O)c3cc4ccc(OC5CCN(c6ccc(C(F)(F)F)cc6)CC5)cc4s3)CC2)c1 [1-145, N-(1-(3-cyanobenzyl)piperidin-4-yl)-6-(1-(4-(trifluoromethyl)phenyl)piperidin-4-yloxy)benzo[b]thiophene-2-carboxamide] | 100 to 500 nM
N#Cc1ccccc1CN1CCC(NC(=O)c2cc3ccc(OC4CCN(c5ccc(C(F)(F)F)cc5)CC4)cc3s2)CC1 [1-146, N-(1-(2-cyanobenzyl)piperidin-4-yl)-6-(1-(4-(trifluoromethyl)phenyl)piperidin-4-yloxy)benzo[b]thiophene-2-carboxamide] | 100 to 500 nM
CC(C)(C)OC(=O)N1CCC(NC(=O)c2sc3cc(OC4CCN(c5ccc(C(F)(F)F)cc5)CC4)ccc3c2Cl)CC1 [1-147, tert-butyl 4-(3-chloro-6-(1-(4-(trifluoromethyl)phenyl)piperidin-4-yloxy)benzo[b]thiophene-2-carboxamido)piperidine-1-carboxylate] | 1000 to 5000 nM
O=C(NC1CCNCC1)c1sc2cc(OC3CCN(c4ccc(C(F)(F)F)cc4)CC3)ccc2c1Cl [1-148, 3-chloro-N-(piperidin-4-yl)-6-(1-(4-(trifluoromethyl)phenyl)piperidin-4-yloxy)benzo[b]thiophene-2-carboxamide] | > 10000 nM
O=C(NC1CCNCC1)c1cc2cc(OC3CCN(c4ccc(C(F)(F)F)cc4)CC3)ccc2s1 [1-150, N-(piperidin-4-yl)-5-(1-(4-(trifluoromethyl)phenyl)piperidin-4-yloxy)benzo[b]thiophene-2-carboxamide] | 1000 to 5000 nM
O=C(NC1CCN(Cc2ccccn2)CC1)c1sc2cc(OC3CCN(c4ccc(C(F)(F)F)cc4)CC3)ccc2c1Cl [1-153, 3-chloro-N-(1-(pyridin-2-ylmethyl)piperidin-4-yl)-6-(1-(4-(trifluoromethyl)phenyl)piperidin-4-yloxy)benzo[b]thiophene-2-carboxamide] | 100 to 500 nM
CC(C)(C)OC(=O)N1CCC(NC2CCc3cc(OC4CCN(c5ccc(C(F)(F)F)cc5)CC4)ccc32)CC1 (centres unmarked) [1-156, tert-butyl 4-(5-(1-(4-(trifluoromethyl)phenyl)piperidin-4-yloxy)-2,3-dihydro-1H-inden-1-ylamino)piperidine-1-carboxylate] | 100 to 500 nM
FC(F)(F)c1ccc(N2CCC(Oc3ccc4c(c3)CCC4NC3CCNCC3)CC2)cc1 (centres unmarked) [1-157, N-(5-(1-(4-(trifluoromethyl)phenyl)piperidin-4-yloxy)-2,3-dihydro-1H-inden-1-yl)piperidin-4-amine] | 1000 to 5000 nM
FC(F)(F)c1ccc(N2CCC(Oc3ccc4c(c3)CCC4NC3CCN(Cc4ccncc4)CC3)CC2)cc1 (centres unmarked) [1-158, 1-(pyridin-4-ylmethyl)-N-(5-(1-(4-(trifluoromethyl)phenyl)piperidin-4-yloxy)-2,3-dihydro-1H-inden-1-yl)piperidin-4-amine] | 100 to 500 nM

Next, values leading:

EC50 | SMILES
100 to 500 nM | CN(C(=O)c1cc2cc(OC3CCN(c4ccc(C(F)(F)F)cc4)CC3)ccc2o1)C1CCN(C(=O)c2ccncc2)CC1 [1-118, N-(1-isonicotinoylpiperidin-4-yl)-N-methyl-5-(1-(4-(trifluoromethyl)phenyl)piperidin-4-yloxy)benzofuran-2-carboxamide]
< 100 nM | CN(C(=O)c1cc2cc(OC3CCN(c4ccc(C(F)(F)F)cc4)CC3)ccc2o1)C1CCN(Cc2ccc(C(F)(F)F)cc2)CC1 [1-119, N-methyl-N-(1-(4-(trifluoromethyl)benzyl)piperidin-4-yl)-5-(1-(4-(trifluoromethyl)phenyl)piperidin-4-yloxy)benzofuran-2-carboxamide]
100 to 500 nM | O=C(N[C@@H]1CCN(Cc2ccncc2)C1)c1cc2cc(OC3CCN(c4ccc(C(F)(F)F)cc4)CC3)ccc2o1 [1-122, (R)-N-(1-(pyridin-4-ylmethyl)pyrrolidin-3-yl)-5-(1-(4-(trifluoromethyl)phenyl)piperidin-4-yloxy)benzofuran-2-carboxamide]
100 to 500 nM | O=C(N[C@@H]1CCN(Cc2cccnc2)C1)c1cc2cc(OC3CCN(c4ccc(C(F)(F)F)cc4)CC3)ccc2o1 [1-123, (R)-N-(1-(pyridin-3-ylmethyl)pyrrolidin-3-yl)-5-(1-(4-(trifluoromethyl)phenyl)piperidin-4-yloxy)benzofuran-2-carboxamide]
< 100 nM | O=C(NC1CCN(Cc2ccncc2)CC1)c1cc2cc(OC3CCN(c4ccc(OC(F)(F)F)cc4)CC3)ccc2s1 [1-137, N-(1-(pyridin-4-ylmethyl)piperidin-4-yl)-5-(1-(4-(trifluoromethoxy)phenyl)piperidin-4-yloxy)benzo[b]thiophene-2-carboxamide]
< 100 nM | O=C(NC1CCN(Cc2ccncc2)CC1)c1cc2cc(OC3CCN(c4ccc(C(F)(F)F)cc4)CC3)ccc2s1 [1-138, N-(1-(pyridin-4-ylmethyl)piperidin-4-yl)-5-(1-(4-(trifluoromethyl)phenyl)piperidin-4-yloxy)benzo[b]thiophene-2-carboxamide]
< 100 nM | N#Cc1ccc(CN2CCC(NC(=O)c3cc4ccc(OC5CCN(c6ccc(C(F)(F)F)cc6)CC5)cc4s3)CC2)cc1 [1-144, N-(1-(4-cyanobenzyl)piperidin-4-yl)-6-(1-(4-(trifluoromethyl)phenyl)piperidin-4-yloxy)benzo[b]thiophene-2-carboxamide]
< 100 nM | CC(C)(C)OC(=O)N1CCC(NC(=O)c2cc3cc(OC4CCN(c5ccc(C(F)(F)F)cc5)CC4)ccc3s2)CC1 [1-149, tert-butyl 4-(5-(1-(4-(trifluoromethyl)phenyl)piperidin-4-yloxy)benzo[b]thiophene-2-carboxamido)piperidine-1-carboxylate]
< 100 nM | O=C(NC1CCN(Cc2ccncc2)CC1)c1sc2cc(OC3CCN(c4ccc(C(F)(F)F)cc4)CC3)ccc2c1Cl [1-151, 3-chloro-N-(1-(pyridin-4-ylmethyl)piperidin-4-yl)-6-(1-(4-(trifluoromethyl)phenyl)piperidin-4-yloxy)benzo[b]thiophene-2-carboxamide]
< 100 nM | O=C(NC1CCN(Cc2cccnc2)CC1)c1sc2cc(OC3CCN(c4ccc(C(F)(F)F)cc4)CC3)ccc2c1Cl [1-152, 3-chloro-N-(1-(pyridin-3-ylmethyl)piperidin-4-yl)-6-(1-(4-(trifluoromethyl)phenyl)piperidin-4-yloxy)benzo[b]thiophene-2-carboxamide]
< 100 nM | N#Cc1ccc(CN2CCC(NC(=O)c3sc4cc(OC5CCN(c6ccc(C(F)(F)F)cc6)CC5)ccc4c3Cl)CC2)cc1 [1-154, 3-chloro-N-(1-(4-cyanobenzyl)piperidin-4-yl)-6-(1-(4-(trifluoromethyl)phenyl)piperidin-4-yloxy)benzo[b]thiophene-2-carboxamide]
